The record followed here is ChEMBL document CHEMBL1150099, “An improved source of bryostatin 10, Bugula neritina from the Gulf of Aomori, Japan” (1995).

Values after ≈ are worked out from the molar mass of the structure shown. Active and inactive are the calls of the source. No cut-off for these calls is given here.

A short description of assay [1]: Inhibition of fertilized sea urchin egg cell division. Conditions: Echinoidea, read-out: ED50 (the source's name). The format is functional.
A further assay has as its system Echinoidea. In words: Inhibition of fertilization of sea urchin egg at 1 ug/ml. Format: functional.
The subject of a further assay is P388. In words: Cytotoxicity against mouse P388 cells. The format is functional. As to conditions: read-out: ED50 (the source's name).
A further assay has as its system Sperm. In words: Inhibition of movement of sea urchin sperm at 1 ug/ml. Format: functional, cell-based. Conditions: Echinoidea.
The nature of assay [2]: Increase in ACTH-induced steroidogenesis in bovine adrenocortical cells measured per 10^5 cells. The format is functional, Bos taurus.

As to `COC(=O)/C=C1\C=C2O[C@@H](C1)C[C@H]([C@@H](C)O)OC(=O)C[C@H](O)C[C@@H]1C[C@H](OC(=O)C(C)(C)C)C(C)(C)[C@](O)(C[C@@H]3C/C(=C/C(=O)OC)C[C@H](/C=C/C2(C)C)O3)O1` [BRYOSTATIN 17], in assay [1], the EC50 came to 0.3 µg/mL (≈ 0.379 µM). In the assay on Echinoidea, the inhibition was 100%.

As for `CCC(=O)O[C@H](C)[C@H]1C[C@@H]2C/C(=C/C(=O)OC)C[C@@](O)(O2)C(C)(C)/C=C/[C@H]2C/C(=C\C(=O)OC)C[C@@H](C[C@]3(O)O[C@H](C[C@@H](O)CC(=O)O1)C[C@H](OC(=O)C(C)(C)C)C3(C)C)O2`, the EC50 in the assay on P388 came to 0.52 µg/mL (≈ 0.601 µM). In addition, the inhibition in the assay on Echinoidea is 80%. For the same compound, in the assay on Sperm, the result was Active.

For `COC(=O)/C=C1/C[C@H]2C[C@]3(O)O[C@H](C[C@@H](O)CC(=O)O[C@@H]([C@@H](C)O)C[C@@H]4C/C(=C\C(=O)OC)C[C@@](O)(O4)C(C)(C)/C=C/[C@@H](C1)O2)C[C@H](OC(=O)C(C)(C)C)C3(C)C` [BRYOSTATIN 10], the EC50 in the assay on P388 stood at 0.0018 µg/mL (≈ 0.00223 µM); in assay [1], 0.16 µg/mL (≈ 0.198 µM). This compound also returned an Activity in assay [2] of 1141 pmol/h.

For `COC(=O)/C=C1/C[C@H]2C[C@]3(O)O[C@H](C[C@@H](O)CC(=O)O[C@@H]([C@@H](C)OC(C)=O)C[C@@H]4C/C(=C/C(=O)OC)C[C@@](O)(O4)C(C)(C)/C=C/[C@@H](C1)O2)C[C@H](OC(=O)C(C)(C)C)C3(C)C`, the EC50 in the assay with P388 turned out to be 0.44 µg/mL (≈ 0.517 µM). In the assay on Echinoidea, the inhibition is 80%.

Regarding `CCCC(=O)O[C@H](C)[C@H]1C[C@@H]2C/C(=C/C(=O)OC)C[C@@](O)(O2)C(C)(C)/C=C/[C@H]2C/C(=C\C(=O)OC)C[C@@H](C[C@]3(O)O[C@H](C[C@@H](O)CC(=O)O1)C[C@H](OC(=O)C(C)(C)C)C3(C)C)O2`, the EC50 in the assay on P388 amounted to 0.32 µg/mL (≈ 0.364 µM). In the assay with Echinoidea, the inhibition amounted to 80%.
